This passage reports IC50 results from patent US20260355196A1, “INHIBITORS AND DEGRADERS OF PIP4K PROTEIN” (Larkspur Biosciences, Inc., priority 2023, published 2026).

The target of the assay is T1, PIP4K2C (Homo sapiens, UniProt Q8TBX8).
T1 sequence (Q8TBX8 1-421): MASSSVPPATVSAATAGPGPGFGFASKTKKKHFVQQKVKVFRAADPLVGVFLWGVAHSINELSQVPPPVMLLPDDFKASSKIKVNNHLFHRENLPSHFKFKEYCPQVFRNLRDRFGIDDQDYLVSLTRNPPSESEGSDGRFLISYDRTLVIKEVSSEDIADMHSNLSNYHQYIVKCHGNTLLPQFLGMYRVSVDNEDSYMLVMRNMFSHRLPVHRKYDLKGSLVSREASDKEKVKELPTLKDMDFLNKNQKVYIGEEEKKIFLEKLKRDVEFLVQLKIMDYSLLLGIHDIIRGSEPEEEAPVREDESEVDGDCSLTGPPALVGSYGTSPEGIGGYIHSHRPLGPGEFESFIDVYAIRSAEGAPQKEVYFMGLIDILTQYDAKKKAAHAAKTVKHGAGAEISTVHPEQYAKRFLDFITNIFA
As to the kind of experiment: Enzyme Binding Assay (KINOMEscan): active site-directed competition binding to an immobilized ligand. Set-up: purchased Eurofins DiscoverX, San Diego, CA 87-0007-1094. The settings on record: 11-point dose response, duplicate, top concentration 5 micromolar; read-out: Pip4k2c Kd: IC50. A digest of the protocol:
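Active site-directed competition binding against an immobilized ligand. 11-point dose-response in duplicate, top concentration 5 micromolar; IC50 from a Hill equation fitted by the Levenberg-Marquardt algorithm.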
For `CC(C)(O)c1cc(-c2nc(N[C@@H]3CCC[C@H](C(N)=O)C3)ncc2F)ccn1` (relative stereo) [Compound 177, cis-3-((5-fluoro-4-(2-(2-hydroxypropan-2-yl)pyridin-4-yl)pyrimidin-2-yl)amino)cyclohexane-1-carboxamide], the IC50 is below 500 nM.
The value for `CN1CCC(Nc2ncc(Cl)c(-c3cccc(-c4ccccc4)c3)n2)CC1=O` (stereo not drawn) [Compound 16, 4-((4-([1,1′-biphenyl]-3-yl)-5-chloropyrimidin-2-yl)amino)-1-methylpiperidin-2-one] was below 500 nM; that for `CC(=O)N1CCC(Nc2ncc(F)c(-c3cccc(-c4ncc[nH]4)c3)n2)CC1` [Compound 239, 1-(4-((4-(3-(1H-imidazol-2-yl)phenyl)-5-fluoropyrimidin-2-yl)amino)piperidin-1-yl)ethan-1-one] was below 500 nM.
For the compound `CC(=O)N1CCC(Nc2ncc(F)c(-c3cccc(C4COC4)c3)n2)CC1` [Compound 169, 1-(4-((5-fluoro-4-(3-(oxetan-3-yl)phenyl)pyrimidin-2-yl)amino)piperidin-1-yl)ethan-1-one], the IC50 was below 500 nM.
On to `NC(=O)[C@H]1CC[C@H](Nc2ncc(F)c(-c3cccc(-c4ccc(=O)[nH]c4)c3)n2)CC1` [Compound 229, trans-4-((5-fluoro-4-(3-(6-oxo-1,6-dihydropyridin-3-yl)phenyl)pyrimidin-2-yl)amino)cyclohexane-1-carboxamide], for which the 50% inhibitory concentration (IC50) was below 500 nM.
Take `NC(=O)[C@H]1CC[C@H](Nc2ncc(F)c(-c3ccnc(C4(O)CCC4)c3)n2)CC1` [Compound 243, trans-4-((5-fluoro-4-(2-(1-hydroxycyclobutyl)pyridin-4-yl)pyrimidin-2-yl)amino)cyclohexane-1-carboxamide]: the half-maximal inhibitory concentration (IC50) was below 500 nM.
The value for `CC(=O)N1CCCC(Nc2ncc(Cl)c(-c3cccc(-c4ccccc4)c3)n2)C1` (stereo not drawn) [Compound 21, 1-(3-((4-([1,1′-biphenyl]-3-yl)-5-chloropyrimidin-2-yl)amino)piperidin-1-yl)ethan-1-one] was below 500 nM; that for `NC(=O)[C@H]1CCC[C@@H](Nc2ncc(F)c(-c3ccn(-c4ccc(F)cc4)n3)n2)C1` (relative stereo) [Compound 42, cis-3-((5-fluoro-4-(1-(4-fluorophenyl)-1H-pyrazol-3-yl)pyrimidin-2-yl)amino)cyclohexane-1-carboxamide] was 1000 to 5000 nM.
The value for `CNC(=O)[C@H]1C[C@H](Nc2ncc(Cl)c(-c3cnn(-c4ccc(F)cc4)c3)n2)C1` [Compound 123, trans-(1r,3r)-3-((5-chloro-4-(1-(4-fluorophenyl)-1H-pyrazol-4-yl)pyrimidin-2-yl)amino)-N-methylcyclobutane-1-carboxamide] was 500 to 1000 nM; that for `CC(=O)N1CCC(Nc2ncc(F)c(-c3cccc(N4CCCC4=O)c3)n2)CC1` [Compound 222, 1-[3-[2-[(1-acetyl-4-piperidyl)amino]-5-fluoro-pyrimidin-4-yl]phenyl]pyrrolidin-2-one] was below 500 nM.
The value for `CNC(=O)[C@H]1CC[C@H](Nc2ncc(Cl)c(-c3cccc(-c4cccc(=O)[nH]4)c3)n2)CC1` [Compound 92, trans-(1r,4r)-4-((5-chloro-4-(3-(6-oxo-1,6-dihydropyridin-2-yl)phenyl)pyrimidin-2-yl)amino)-N-methylcyclohexane-1-carboxamide] was below 500 nM; that for `CNC(=O)[C@H]1CC[C@@H](Nc2ncc(Cl)c(-c3cnn(C4CCCCC4)c3)n2)CC1` [Compound 108, cis-(1s,4s)-4-((5-chloro-4-(1-cyclohexyl-1H-pyrazol-4-yl)pyrimidin-2-yl)amino)-N-methylcyclohexane-1-carboxamide] was 1000 to 5000 nM; that for `NC(=O)[C@@H]1CCC[C@H](Nc2ncc(F)c(C3CCCN(c4ccc(F)cc4)C3)n2)C1` (relative stereo) [Compound 91, cis-3-((5-fluoro-4-(1-(4-fluorophenyl)piperidin-3-yl)pyrimidin-2-yl)amino)cyclohexane-1-carboxamide] was below 500 nM.
As for `CNC(=O)[C@H]1CC[C@@H](Nc2ncc(Cl)c(-c3cnn(-c4cccc(=O)[nH]4)c3)n2)CC1` [Compound 167, cis-(1s,4s)-4-((5-chloro-4-(1-(6-oxo-1,6-dihydropyridin-2-yl)-1H-pyrazol-4-yl)pyrimidin-2-yl)amino)-N-methylcyclohexane-1-carboxamide], the IC50 was 500 to 1000 nM.
Consider `CC(=O)N1CCC(Nc2ncc(Cl)c(-c3ccn(C4CCCCC4)n3)n2)CC1` [Compound 109, 1-(4-((5-chloro-4-(1-cyclohexyl-1H-pyrazol-3-yl)pyrimidin-2-yl)amino)piperidin-1-yl)ethan-1-one], for which the IC50 was in the range of 1000 to 5000 nM.
The value for `CC(=O)N[C@H]1CC[C@H](Nc2ncc(F)c(-c3cccc(-n4cc(C(F)(F)F)ccc4=O)c3)n2)CC1` [Compound 234, trans-N-(4-((5-fluoro-4-(3-(2-oxo-5-(trifluoromethyl)pyridin-1 (2H)-yl)phenyl)pyrimidin-2-yl)amino)cyclohexyl)acetamide] was below 500 nM; that for `NC(=O)[C@H]1CCC[C@@H](Nc2ncc(F)c(-c3cccc(C4COC4)c3)n2)C1` (relative stereo) [Compound 170, cis-3-((5-fluoro-4-(3-(oxetan-3-yl)phenyl)pyrimidin-2-yl)amino)cyclohexane-1-carboxamide] was below 500 nM.
`O=C(C1CCNCC1)N1CCC(Nc2ncc(Cl)c(-c3cccc(-c4ccccc4)c3)n2)CC1` [Compound 2, (4-((4-([1,1′-biphenyl]-3-yl)-5-chloropyrimidin-2-yl)amino)piperidin-1-yl)(piperidin-4-yl)methanone]: the half-maximal inhibitory concentration (IC50) is below 500 nM.
As for `NC(=O)[C@@H]1CCC[C@H](Nc2ncc(Cl)c(-c3cccc(-n4ccccc4=O)c3)n2)C1` (relative stereo) [Compound 136, cis-3-((5-chloro-4-(3-(2-oxopyridin-1 (2H)-yl)phenyl)pyrimidin-2-yl)amino)cyclohexane-1-carboxamide], the 50% inhibitory concentration (IC50) was below 500 nM.
The value for `NC(=O)[C@@H]1CCC[C@H](Nc2ncc(F)c(-c3cccc(-c4ccc[nH]c4=O)c3)n2)C1` [Compound 204, (1R,3S)-3-((5-fluoro-4-(3-(2-oxo-1,2-dihydropyridin-3-yl)phenyl)pyrimidin-2-yl)amino)cyclohexane-1-carboxamide] was below 500 nM; that for `CNC(=O)[C@H]1C[C@@H](Nc2ncc(Cl)c(-c3cnn(-c4ccc[nH]c4=O)c3)n2)C1` [Compound 193, cis-3-((5-chloro-4-(1-(2-oxo-1,2-dihydropyridin-3-yl)-1H-pyrazol-4-yl)pyrimidin-2-yl)amino)-N-methylcyclobutane-1-carboxamide] was below 500 nM.
With `CC(=O)N1CCC[C@H](Nc2ncc(Cl)c(N3CCC(c4ccccn4)C3)n2)C1` (stereo partly drawn) [Compound 29, 1-((3S)-3-((5-chloro-4-(3-(pyridin-2-yl)pyrrolidin-1-yl)pyrimidin-2-yl)amino)piperidin-1-yl)ethan-1-one], the 50% inhibitory concentration (IC50) is 1000 to 5000 nM.
`CC(=O)N[C@H]1CC[C@H](Nc2ncc(F)c(-c3ccnc(N4CCOC4=O)c3)n2)CC1` [Compound 253, trans-N-((1r,4r)-4-((5-fluoro-4-(2-(2-oxooxazolidin-3-yl)pyridin-4-yl)pyrimidin-2-yl)amino)cyclohexyl)acetamide]: the IC50 is below 500 nM.
The value for `CC(=O)N1CCC(Nc2ncc(F)c(-c3cccc(N4CCC[C@H](O)C4)c3)n2)CC1` [Compound 210, (S)-1-(4-((5-fluoro-4-(3-(3-hydroxypiperidin-1-yl)phenyl)pyrimidin-2-yl)amino)piperidin-1-yl)ethan-1-one] was below 500 nM; that for `CN1CCC2(CCC(C(=O)N3CCC(Nc4ncc(Cl)c(-c5cccc(-c6ccccc6)c5)n4)CC3)CC2)CC1` [Compound 12, (4-((4-([1,1′-biphenyl]-3-yl)-5-chloropyrimidin-2-yl)amino)piperidin-1-yl)(3-methyl-3-azaspiro[5.5]undecan-9-yl)methanone] was below 500 nM.
The value for `Cc1ccc(=O)n(-c2cccc(-c3nc(N[C@H]4CCC[C@@H](C(N)=O)C4)ncc3F)c2)c1` [Compound 207, (1R,3S)-3-((5-fluoro-4-(3-(5-methyl-2-oxopyridin-1 (2H)-yl)phenyl)pyrimidin-2-yl)amino)cyclohexane-1-carboxamide] was below 500 nM.
The value for `CC(=O)N1CCC(Nc2ncc(Cl)c(-c3cnn(C4CC4)c3)n2)CC1` [Compound 98, 1-(4-((5-chloro-4-(1-cyclopropyl-1H-pyrazol-4-yl)pyrimidin-2-yl)amino)piperidin-1-yl)ethan-1-one] was below 500 nM; that for `CC(=O)N1CCC(Nc2ncc(F)c(N3CCCC(c4cc[nH]c(=O)c4)C3)n2)CC1` (stereo not drawn) [Compound 224, 4-(1-(2-((1-acetylpiperidin-4-yl)amino)-5-fluoropyrimidin-4-yl)piperidin-3-yl)pyridin-2(1H)-one] was 500 to 1000 nM; that for `CC(=O)N[C@H]1CC[C@H](Nc2ncc(F)c(-c3ccnc(N4CCOCC4=O)c3)n2)CC1` [Compound 272, trans-N-(4-((5-fluoro-4-(2-(3-oxomorpholino)pyridin-4-yl)pyrimidin-2-yl)amino)cyclohexyl)acetamide] was below 500 nM.
On to `NC(=O)[C@H]1CC[C@H](Nc2ncc(F)c(-c3cccc(N4CCC(O)CC4)c3)n2)CC1` [Compound 251, trans-4-((5-fluoro-4-(3-(4-hydroxypiperidin-1-yl)phenyl)pyrimidin-2-yl)amino)cyclohexane-1-carboxamide], for which the IC50 is below 500 nM.
